Assay results from ChEMBL document CHEMBL1201862, “PubChem BioAssay data set” (2004).
The source made the active and inactive calls.

Legend:
[1] = blockers of HIV-1 envelope-mediated cell-cell fusion – cherry-pick, dose response (AID 652057); format: functional, cell-based
[2] = HIV-1 AD8 envelope cell-cell fusion blockers – cherry-pick, dose response (AID 652062); format: functional, cell-based;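 note: luciferase signal from cell-cell fusion driven by HIV-1 clade B AD8 Env; potency is for inhibitors of fusion seen as a drop in luminescence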
[3] = NIH3T3 cell viability loss – ATP luminescence, mouse fibroblasts, counter-screen, dose response (AID 2010); format: functional, cell-based;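 note: cells exposed to compound for about 90 hours before reading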
[4] = viability of HCT116 lacking mutant beta-catenin – cell-based, human colon tumor, dose response (AID 1045); format: functional;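 note: HCT116 colon tumor cells with beta catenin knocked out; cells exposed to compound for 60 hours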
[5] = Trypanosoma cruzi growth suppression in host cells – NIH3T3 host cells, beta-gal luminescence, confirmation (AID 2044); format: functional, cell-based;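 note: intracellular parasites grown in NIH/3T3 mouse fibroblasts as host cells; luminescent beta-galactosidase reporter signal from transgenic T. cruzi replicating inside host cells; inhibitors lower the luminescence signal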
[6] = viability of PTEN-deleted HCT116 cells – cell-based, HCT116 PTEN knockout, dose response (AID 1047); format: functional;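 note: HCT116 colon tumor cells with PTEN knocked out; cells exposed to compound for 60 hours before readout; potency for loss of cell viability measured by luminescence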
[7] = molecular target: T1, Ubiquitin-conjugating enzyme E2 N (Homo sapiens, UniProt P61088); format: functional;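 note: Dose-response confirmation in a TR-FRET assay detecting UBC13-driven polyubiquitin chain formation, inhibition measured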
T1 sequence (P61088 whole entry): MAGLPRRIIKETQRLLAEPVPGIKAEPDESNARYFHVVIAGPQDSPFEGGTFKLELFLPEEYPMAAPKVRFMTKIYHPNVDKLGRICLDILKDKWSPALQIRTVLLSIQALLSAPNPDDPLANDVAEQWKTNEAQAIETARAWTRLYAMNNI

[8] = P. falciparum Dd2 growth inhibitors, dose response, SYBR Green, cherry-picked samples (AID 1159567); format: functional, cell-based
Leucine aminopeptidase = molecular target: T2, Leucine aminopeptidase (Plasmodium falciparum 3D7, UniProt Q8IL11); assay: P. falciparum M17LAP inhibitors, primary screen, biochemical, fluorogenic H-Leu-NHMec substrate, 1536-well (AID 1619); format: functional
T2 sequence (Q8IL11 whole entry): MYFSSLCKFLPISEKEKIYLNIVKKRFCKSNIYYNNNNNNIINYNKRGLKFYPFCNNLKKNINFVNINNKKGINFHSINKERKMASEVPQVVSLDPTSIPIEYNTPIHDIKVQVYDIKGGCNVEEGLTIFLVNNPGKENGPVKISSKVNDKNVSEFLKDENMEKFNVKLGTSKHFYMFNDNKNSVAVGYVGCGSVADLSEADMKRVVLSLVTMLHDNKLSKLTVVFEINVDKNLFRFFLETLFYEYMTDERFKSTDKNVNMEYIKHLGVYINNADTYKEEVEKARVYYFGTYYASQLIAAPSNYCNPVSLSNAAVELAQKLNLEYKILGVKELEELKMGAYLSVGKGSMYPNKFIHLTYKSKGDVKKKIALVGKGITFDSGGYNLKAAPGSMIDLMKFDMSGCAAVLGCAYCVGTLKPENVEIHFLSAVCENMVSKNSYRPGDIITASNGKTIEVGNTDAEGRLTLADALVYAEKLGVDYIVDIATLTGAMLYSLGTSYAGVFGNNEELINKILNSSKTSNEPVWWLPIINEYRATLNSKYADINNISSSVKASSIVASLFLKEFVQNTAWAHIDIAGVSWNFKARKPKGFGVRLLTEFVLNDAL

[9] = Luminescence Cell-Based Dose Confirmation HTS to Identify Activators of 5'UTR Stem-Loop Driven Alpha-Synuclein mRNA Translation in H4 Neuroglioblastoma Cells. [Related pubchem assays: 1829 (Project Summary), 1814 (Primary HTS)]; format: functional
H4 = assay: Luminescence Cell-Based Dose Response HTS to Identify Activators of 5'UTR Stem-Loop Driven Prion Protein mRNA Translation in H4 Neuroglioblastoma Cells. [Related pubchem assays: 1829 (Project Summary), 1814 (Primary HTS)]; format: functional; details: Homo sapiens
[10] = Luminescence Cell-Based Dose Response HTS to Identify Activators of Luciferase Translation or Activity in H4 […] Cells. [Related pubchem assays: 1829 (Project Summary), 1814 (Primary HTS)]; format: functional

For `COc1ccc(-c2ccc3c(c2)[C@@H]2[C@@H](CCN2C(=O)NC2CCCC2)[C@H](CO)N3C)cc1`, the AC50 [1] was 26.5 µM (active) and the AC50 [2] was 2.83 µM (active).
With `CCc1ccc(OCC(O)CN2CCC(CN3C(=O)c4cccc5cccc(c45)C3=O)CC2)cc1` (stereo not drawn) the EC50 [3] was > 60 µM (not active), the EC50 [4] was 5.43 µM (active) and the EC50 [5] was 1.84 µM (active). For the same compound, the EC50 [6] was 6.53 µM (active) and the IC50 [7] was > 20 µM (inactive).
In the case of `Cc1ccc(S(=O)(=O)Cc2ccc(C(=O)N3CCN(c4ccc(F)cc4)CC3)o2)cc1`, the EC50 [4] is reported as 10.1 µM (active) and the EC50 [6] is reported as 9.74 µM (active).
In the case of `C[C@H]1CN([C@@H](C)CO)C(=O)c2c(c3ccccc3n2C)-c2ccccc2CO[C@H]1CN(C)S(=O)(=O)c1ccccc1C#N`, the AC50 [8] is reported as 5 µM (active).
In the case of `O=C(Cn1cc(/C=N/O)c2ccccc21)N1CCOCC1`, the IC50 (Leucine aminopeptidase) is reported as 78.9 µM (active).
For `CSCCC(NC(=O)c1c(C)oc2c1CCCC2)C(=O)O` (stereo not drawn), the IC50 (Leucine aminopeptidase) was 35.9 µM (active).
With `NC(=NOC(=O)Nc1ccccc1)c1ncc([N+](=O)[O-])s1` the EC50 [9] was > 120 µM (not active), the EC50 (H4) was > 120 µM (not active) and the EC50 [10] was > 120 µM (not active).
For `Cc1ccc2c(c1)c1c3n2CCN(C(=O)CN2CCN(C)CC2)C3CCC1` (stereo not drawn), the EC50 [4] was 16.7 µM (active) and the EC50 [6] was 16.1 µM (active).
In the case of `O=C(CN1C(=O)CCSc2ccccc21)Nc1ccc2c(c1)OCCO2`, the IC50 (Leucine aminopeptidase) is reported as 16.1 µM (active).
With `COCC(=O)N1CC2(C1)CN(Cc1cccc(Cl)c1)[C@@H](CO)c1[nH]c3cc(OC)ccc3c12` the AC50 [8] was 12.9 µM (active).
With `CC(CNC(=O)c1ccc(OC2CCN(Cc3ccccn3)CC2)cc1)c1ccccc1` (stereo not drawn) the EC50 [9] was 18.2 µM (active), the EC50 (H4) was 35.6 µM (active) and the EC50 [10] was 53.8 µM (active).
In the case of `CS(=O)(=O)N1[C@H](C#N)[C@H](c2ccccc2-c2ccc(F)cc2)[C@H]1CO`, the AC50 [8] is reported as 16.6 µM (active).
